Measured values taken from PMC5004293, “Characterization of FRM-36143 as a new γ-secretase modulator for the potential treatment of familial Alzheimer’s disease” (Alzheimer's Research & Therapy, 2016).
Read-outs that look alike come from different tables or passages of the source.

Key:
[1] = Compound exposure in rats (LC-MS/MS, brain tissue binding); type: in vivo; settings: Wistar, oral, rat, 30 mg/kg, 6 h post-dose
Method: Mice and rats were maintained on 12/12 h light/dark cycle with food available ad libitum. Drug treatment was prepared in a vehicle of 1 % carboxymethylcellulose (CMC):Tween80 (99.5:0.5). Twelve-week-old wild-type male mice (129S6, Taconic Biosciences, Hudson, NY, USA) or rats (Wistar, Charles River Laboratories) were administered compound p.o. without prior fasting and euthanized by CO2 asphyxiation at specified times post-dosing. After extraction of the brain, the olfactory bulb and hindbrain were removed and the cerebral hemispheres separated (mice) or cut in 4 pieces (rats). The cerebellum was removed for bioanalysis of the compound. CSF was collected from the cisterna magna and blood from a cardiac puncture.
Cerebellums were homogenized in a Mini-BeadBeater (Biospec Products, Inc., Bartlesville, OK, USA). Brain samples, plasma, and CSF were prepared for LC-MS/MS by precipitating proteins with acetonitrile and vacuum filtration in the presence of an internal standard. Standards were prepared in the corresponding matrix. FRM-36143 was resolved by HPLC (Shimadzu) using a reverse-phase C18 Kinetex column (30X2.1 mM; Phenomenex, Torrance, CA, USA). […]
The unbound fraction in brain homogenate (fu,b) was determined in triplicate in the Rapid Equilibrium Dialysis device (8000 Da molecular weight cut-off membrane, Thermo Scientific/Pierce Biotechnology, Rockford, IL, USA). […]

[2] = system: γ-secretase; experiment: Aβ42 ELISA in mouse primary cortical neurons; type: cell-based; settings: overnight
Method: Primary cultures were established from the neocortex of E17 CD1 mouse embryos (Charles River Laboratories, Wilmington, MA, USA). Following tissue dissection and trituration, the cultures were suspended in Neurobasal® medium (Invitrogen, Carlsbad, CA, USA) supplemented with 10 % horse serum (Sigma-Aldrich, St. Louis, MO, USA) and 520 μM L-glutamine. Cells were plated at 50,000 cells/well in 96-well poly-D-lysine-coated plates. Following incubation at 37 °C and 5 % CO2 for 4 h, the plating medium was exchanged with Neurobasal® medium supplemented with 2 % B-27® (Invitrogen), 520 μM of L-glutamine, and 1 % penicillin–streptomycin. […]
Aβ peptide levels were quantified by sandwich ELISA using anti-Aβ38, anti-Aβ40, anti-Aβ42, (BioLegend, Dedham, MA, USA) or anti-Aβ37 for the capture and 4G8-horseradish peroxidase (HRP; BioLegend) for detection. […]
For cell-based assays, freshly collected samples of cultured cell supernatant were added to the plates and incubated at 4 °C for about 24 h. Detection was performed using SureBlue 3,3’,5,5’-tetramethylbenzidine (TMB) peroxidase substrate (KPL, Inc., Gaithersburg, MD, USA) and the plates read on a SpectraMax M5e microplate reader (Molecular Devices, Inc., Sunnyvale, CA, USA). […] EC50 values were calculated from values reported as percentage of DMSO using nonlinear regression, based on a sigmoidal dose–response (variable slope) model.

[3] = system: γ-secretase; experiment: Immunoprecipitation / MALDI-TOF mass spectrometry of Aβ peptides in H4 cell media; type: cell-based, human; settings: 300 nM, overnight
Method: (§1) Human neuroglioma H4 cells stably expressing wild-type human APP751 were used for this assay. Briefly, cells were plated at 15,000 cells/well in 96-well plates and left to settle for 6 h (37 °C; 5 % CO2). Cells were then washed three times with Pro293™ chemically defined medium (Lonza, Walkersville, MD, USA) followed by the addition of the compound (0.3 % final DMSO). Plates were incubated overnight, and the supernatant was removed for quantification of Aβ peptides by sandwich enzyme-linked immunosorbent assay (ELISA) (see below). Cytotoxicity was evaluated using Cell-Titer 96 W AQueous One Solution Cell Proliferation Assay (MTS Assay, Promega) according to the manufacturer’s protocol.
Immunoprecipitation of carboxyl-terminally truncated Aβ peptides from 4 mL of H4 cell media was conducted using the anti-Aβ antibody 6E10 (epitope 3–8 of Aβ; Covance, Inc., Dedham, MA, USA) or 4G8 (epitope 18–22 of Aβ; Covance, Inc., Dedham, MA, USA) coupled to magnetic beads as described elsewhere. After elution of the immunoprecipitated Aβ peptides, the detection was performed on an UltraFlextreme MALDI-TOF/TOF instrument (Bruker Daltonics, Bremen, Germany).

[4] = system: γ-secretase; experiment: Aβ peptide ELISA in H4 cells stably expressing wild-type human APP751; type: cell-based
Method: as §1
Aβ peptide levels were quantified by sandwich ELISA using anti-Aβ38, anti-Aβ40, anti-Aβ42, (BioLegend, Dedham, MA, USA) or anti-Aβ37 for the capture and 4G8-horseradish peroxidase (HRP; BioLegend) for detection. When measuring Aβ37 and Aβ38, 4G8-HRP was added to the sample for overnight incubation, whereas it was added after the overnight incubation for 1 h for Aβ40 and Aβ42 measurements.
For cell-based assays, freshly collected samples of cultured cell supernatant were added to the plates and incubated at 4 °C for about 24 h. Detection was performed using SureBlue 3,3’,5,5’-tetramethylbenzidine (TMB) peroxidase substrate (KPL, Inc., Gaithersburg, MD, USA) and the plates read on a SpectraMax M5e microplate reader (Molecular Devices, Inc., Sunnyvale, CA, USA). GSM-treated samples were normalized to samples treated with DMSO alone (100 %) and 5 μM GSI, DAPT (0 %; Sigma-Aldrich). EC50 values were calculated from values reported as percentage of DMSO using nonlinear regression, based on a sigmoidal dose–response (variable slope) model.

For `COc1nc(C2=NOC[C@H](c3cc4ccccc4o3)N2)ccc1-n1cnc(C)c1` [FRM-36143, (R)-5-(benzofuran-2-yl)-3-(6-methoxy-5-(4-methyl-1H-imidazol-1-yl)pyridin-2-yl)-5,6-dihydro-4H-1,2,4-oxadiazine], the concentration at 6 h ([1]; CSF, read-out: CSF concentration) was 122 nM, the concentration at 6 h ([1]; brain (unbound), calculated using brain tissue binding, read-out: Unbound brain exposure) was 156 nM and the EC50 [2] was 53 nM. For the same compound, the “Percentage change (vs. DMSO) Aβ1–33” value [3] was 161%, the “Percentage change (vs. DMSO) Aβ1–34” value [3] was 125% and the “Percentage change (vs. DMSO) Aβ1–37” value [3] was 407%. For the same compound, the “Percentage change (vs. DMSO) Aβ1–38” value [3] was 126%, the “Percentage change (vs. DMSO) Aβ1–39” value [3] was 46% and the “Percentage change (vs. DMSO) Aβ1–40” value [3] was 26%. For the same compound, the “Percentage change (vs. DMSO) Aβ1–42” value [3] was 21%, the “Percentage change (vs. DMSO) Aβ5–38” value [3] was 150% and the “Percentage change (vs. DMSO) Aβ5–40” value [3] was 40%. The “Normalized AUC Aβ1–33” value ([3]; semi-quantitative) was 2.9, the “Normalized AUC Aβ1–34” value ([3]; semi-quantitative) was 0.5 and the “Normalized AUC Aβ1–37” value ([3]; semi-quantitative) was 23.6. The “Normalized AUC Aβ1–38” value ([3]; semi-quantitative) was 15, the “Normalized AUC Aβ1–39” value ([3]; semi-quantitative) was 1.6 and the “Normalized AUC Aβ1–40” value ([3]; semi-quantitative) was 10. The “Normalized AUC Aβ1–42” value ([3]; semi-quantitative) was 0.4, the “Normalized AUC Aβ5–37” value ([3]; semi-quantitative) was 1.9 and the “Normalized AUC Aβ5–38” value ([3]; semi-quantitative) was 1.5. For the same compound, the “Normalized AUC Aβ5–40” value ([3]; semi-quantitative) was 1.2, the EC50 ([4]; H4 APP751 cells, overnight, ELISA, read-out: EC50 for Aβ37) was 186 nM and the EC50 ([4]; H4 APP751 cells, overnight, ELISA, read-out: EC50 for Aβ38) was 38 nM. It also gave an EC50 ([4]; H4 APP751 cells, overnight, ELISA, read-out: EC50 for Aβ40) of 167 nM, an EC50 ([4]; H4 cells expressing human WT APP751, overnight treatment, ELISA of conditioned media, read-out: EC50 for Aβ42) of 35 nM and an EC90 ([4]; assay not stated, compared with unbound brain concentration) of 383 nM. It also gave an EC50 ([4]; range over H4 cells and primary neurons, read-out: EC50 to reduce Aβ42 levels in cells) of 35 to 53 nM.
